Assay results: PMC6154719 (Molecules : A Journal of Synthetic Chemistry and Natural …, 2017)

How the values were obtained:
[1] = test system: CYP2B/3A; assay: CYP2B/3A (BROD activity, benzyloxyresorufin O-debenzylation) in human liver microsomes; format: in vitro ADME; details: probe benzyloxyresorufin
Protocol: (§1) Enzyme activities were assayed in human and rat liver cytosolic and microsomal fractions. The enzyme assays (each performed in 4–8 replicates) were repeated three times (HPLC measurement of CYP activities was repeated only twice, Table 3). Inhibition studies were carried out by incubation of specific substrates in the presence of sesquiterpenes (in the range 0–100 µM).
(§2) Enzyme activities of individual CYP forms were measured according to established protocols. The following microsomal CYP activities were tested: CYP2A6, coumarin 7-hydroxylation; CYP2B6, 7-ethoxy-4-(trifluoromethyl)coumarin 7-deethylation, CYP2C9, diclofenac 4′-hydroxylation, CYP2C19 assay, S-mephenytoin 4′-hydroxylation, CYP2D6 on bufuralol 1′-hydroxylation, CYP2E1, chlorzoxazone 6-hydroxylation and CYP3A4, testosterone 6β-hydroxylation, and midazolam 1′-hydroxylation. Activities were measured using the Prominence HPLC system (Shimadzu, Kyoto, Japan), equipped with a LiChroCART 250-4 LiChrospher 100 RP-18 column or Chromolith®HighResolution RP-18 end-capped column (Merck, Darmstadt, Germany) and UV or fluorescence detection, according to the cited literature. Further incubation details are described either in the corresponding references, as well as in the papers from this laboratory e.g., [42, 43, 44]. CYP1A2, 7-ethoxyresorufin O-deethylation, and CYP3A4/2B6 (human), CYP2B1 (rat), benzyloxyresorufin O-debenzylation were measured using the microplate reader Tecan Infinite M200 (Tecan Group; Mannedorf, Switzerland).
Sesquiterpenes CNER, TNER and FAR, non-volatile liquids, were pipetted, and proper concentration was calculated according to density. All compounds were dissolved in DMSO. The final solvent concentration in the inhibition assays was 1%, which had no effect on the enzyme activity (data not shown). Non-enzymatic interference of sesquiterpenes with some compounds in the reaction mixtures (e.g., fluorescence enhancing or quenching) was considered and excluded. All experiments were performed in three replicates, if not stated otherwise.
(§3) CNER, TNER and FAR at a fixed concentration of 100 µM were screened for inhibition of cytosolic AKR1A1, AKR1C, CBR1, NQO1, SULT, and GST, and microsomal CYPs and UGT. The degree of inhibition caused by sesquiterpenes was compared with non-inhibited control reactions, which contained solvent without sesquiterpenes.
(§4) The concentration of sesquiterpenes required for 50% inhibition of enzyme activity, the IC50 value, was determined. Their final concentrations in the reaction mixture were proposed to cover the entire inhibitory range of these compounds (1–100 µM). The IC50 values for each sesquiterpene were determined by plotting sigmoidal dose response curves of specific enzyme activity vs. logarithm of sesquiterpene concentration using GraphPad Prism version 6.07 for Windows (GraphPad Software Inc., La Jolla, CA, USA).
(§5) The kinetic inactivation study of the CYP1A2 (EROD activity) and CYP2B/3A (BROD activity), both in rat and human, with TNER, was performed to find out the mechanism of enzyme inhibition by this sesquiterpene. Mechanism of EROD and BROD inhibition was tested at the final ethoxyresorufin or benzyloxyresorufin concentrations 0.5–5.0 µM. The concentration of TNER was 5.0 µM.
(§6) Experimental data were fitted to the Michaelis-Menten equation, basic kinetic parameters were determined using the program GraphPad Prism version 6.07 for Windows. The type of inhibition was estimated using a Lineweaver-Burk (double-reciprocal) plot.

[2] = test system: HeLa; set-up: method as in earlier work; details: HeLa cell line; cited from earlier work
[3] = test system: Jurkat; set-up: method as in earlier work; details: Jurkat cell line; cited from earlier work
[4] = test system: CYP3A4; set-up: method as in PMID 25858508; details: human liver microsomes; cited from earlier work
[5] = target: T1, CYP1A2 (Homo sapiens, UniProt P05177); assay: CYP1A2 (EROD activity, 7-ethoxyresorufin O-deethylation) in human liver microsomes; format: in vitro ADME; details: liver microsomes, probe 7-ethoxyresorufin; human, 5 µM inhibitor
T1 construct: Frozen liver (both rat and human) was thawed; from tissue; host or cells: human liver microsomal fraction
T1 sequence (P05177 1-516): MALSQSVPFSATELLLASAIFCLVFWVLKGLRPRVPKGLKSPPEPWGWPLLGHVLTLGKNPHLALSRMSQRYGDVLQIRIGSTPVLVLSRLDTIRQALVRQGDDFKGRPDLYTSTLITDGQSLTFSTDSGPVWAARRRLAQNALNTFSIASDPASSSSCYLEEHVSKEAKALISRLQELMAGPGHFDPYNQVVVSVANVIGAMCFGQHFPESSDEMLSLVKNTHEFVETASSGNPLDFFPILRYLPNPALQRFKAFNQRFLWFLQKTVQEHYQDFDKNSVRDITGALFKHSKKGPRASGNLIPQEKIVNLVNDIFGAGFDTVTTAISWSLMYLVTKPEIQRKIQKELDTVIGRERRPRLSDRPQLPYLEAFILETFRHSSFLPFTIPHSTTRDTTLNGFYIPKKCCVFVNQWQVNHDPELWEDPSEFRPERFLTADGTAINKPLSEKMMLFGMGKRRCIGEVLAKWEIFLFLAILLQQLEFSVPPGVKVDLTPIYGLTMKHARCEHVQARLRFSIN
Protocol: as §1, §2
Sesquiterpenes CNER, TNER and FAR, non-volatile liquids, were pipetted, and proper concentration was calculated according to density. All compounds were dissolved in DMSO. […] All experiments were performed in three replicates, if not stated otherwise.
as §3
as §4, with “Their final concentrations in the reaction mixture were proposed to cover the entire inhibitory range of these compounds (1–100 µM).” left out
as §5, §6

[6] = test system: certain CYPs; set-up: method as in PMID 21287405; details: read-out: IC50, inhibition of certain CYPs; cited from earlier work

`CC(=O)N1CCN(c2ccc(OCC3COC(Cn4ccnc4)(c4ccc(Cl)cc4Cl)O3)cc2)CC1` (stereo not shown) [KET, ketoconazole, reference compound] gave an inhibition at 5 µM ([1]; liver microsomes, human, 5 µM inhibitor) of 66% and an IC50 ([1]; human liver microsomes) of 2680 nM.
In the case of `C=CC(C)(O)CC/C=C(\C)CCC=C(C)C` (stereo not shown) [NER, Nerolidol], the “concentration with strong anti-tumor effects” value [2] is listed as “less than 5 µM” and the “concentration with strong anti-tumor effects” value [3] is listed as “less than 5 µM”.
In the case of `C=C1C(=O)O[C@@H]2C[C@@]3(C)CCC[C@H](C)C3=C[C@H]12` [alantolactone], the IC50 [4] is listed as 3.6 µM.
Compound `O=c1cc(-c2ccccc2)oc2c1ccc1ccccc12` [ANF, α-naphthoflavone, reference compound] has an inhibition at 5 µM [5] of 92%.
In the case of `CC1=CCC[C@]2(C)O[C@H]2CC(=C(C)C)C(=O)C1` [(4S,5S)-(+)-germacrone-4,5-epoxide], the IC50 [6] is given as 1000 nM.
